# Values quoted from earlier work as cited in patent US9861098B2, “Method for producing agrichemical-containing resin composition” (Nippon Soda Co., Ltd., priority 2008, dated 2018).
# Details: 20° C.
row,Compound,water solubility
1,COP(=O)(NC(C)=O)SC (stereo not drawn) [acephate],790000 ppm
2,CNC(=O)Oc1cccc2c1OC(C)(C)O2 [bendiocarb],280 ppm
3,CN/C(=N\[N+](=O)[O-])NCc1cnc(Cl)s1 [clothianidin],327 ppm
4,CCSCc1ccccc1OC(=O)NC [ethiofencarb],1800 ppm
5,CNC(=O)ON=C(C)SC [methomyl],58000 ppm
6,CCN(Cc1ccc(Cl)nc1)/C(=C/[N+](=O)[O-])NC [nitenpyram],590000 ppm
7,N#C/N=C1\SCCN1Cc1ccc(Cl)nc1 [thiacloprid],185 ppm
8,CN1COCN(Cc2cnc(Cl)s2)/C1=N\[N+](=O)[O-] [thiamethoxam],4100 ppm

# Same assay, conditions: 25° C.
row,Compound,water solubility
1,C/C(=N\C#N)N(C)Cc1ccc(Cl)nc1 [acetamiprid],4250 ppm
